Assay results from ChEMBL document CHEMBL1159075, “The chemical synthesis and antibiotic activity of a diverse library of 2-aminobenzimidazole small molecules against MRSA and multidrug-resistant A. baumannii” (Bioorg Med Chem, 2010).
≈ marks a conversion by molar mass, not a printed value.

Key:
Staphylococcus aureus [1] = assay: Antibacterial activity against methicillin-resistant Staphylococcus aureus BAA-44 after 16 to 20 hrs by microdilution susceptibility test; format: functional
Acinetobacter baumannii [2] = assay: Antibacterial activity against Acinetobacter baumannii UH8407 after 16 to 20 hrs by microdilution susceptibility test; format: functional
Acinetobacter baumannii [3] = assay: Antibacterial activity against multidrug-resistant Acinetobacter baumannii BAA-1605 after 16 to 20 hrs by microdilution susceptibility test; format: functional
Acinetobacter baumannii [4] = assay: Antibacterial activity against Acinetobacter baumannii 3304 after 16 to 20 hrs by microdilution susceptibility test; format: functional
Staphylococcus aureus [5] = assay: Antibacterial activity against Staphylococcus aureus ATCC 25923 after 16 to 20 hrs by microdilution susceptibility test; format: functional
Acinetobacter baumannii [6] = assay: Antibacterial activity against Acinetobacter baumannii AB0043 after 16 to 20 hrs by microdilution susceptibility test; format: functional
Acinetobacter baumannii [7] = assay: Antibacterial activity against Acinetobacter baumannii ATCC 19606 after 16 to 20 hrs by microdilution susceptibility test; format: functional; settings: ATCC 19606 = CIP 70.34 = JCM 6841
Staphylococcus aureus [8] = assay: Antibacterial activity against Staphylococcus aureus ATCC 29740 after 16 to 20 hrs by microdilution susceptibility test; format: functional
Staphylococcus aureus [9] = assay: Antibacterial activity against Staphylococcus aureus ATCC 29213 after 16 to 20 hrs by microdilution susceptibility test; format: functional
[10] = Toxicity in defibrinated sheep RBC assessed as hemolysis at 25 uM by UV spectrometry; format: cell-based, Ovis aries, Erythrocyte; settings: defibrinated sheep red blood cells, read-out: Activity
[11] = Induction of pore-formation in synthetic 1-palmitoyl-2-oleoyl-sn-glycero-3-phosphoglycerol vesicles assessed as dye leakage at 25 uM; format: physicochemical
[12] = Induction of pore-formation in synthetic 1-palmitoyl-2-oleoyl-sn-glycero-3-phosphoglycerol vesicles assessed as dye leakage at >500 uM; format: physicochemical
[13] = Induction of pore-formation in synthetic 1-palmitoyl-2-oleoyl-sn-glycero-3-phosphocholine vesicles assessed as dye leakage at 25 uM; format: physicochemical
Staphylococcus aureus [14] = assay: Antibacterial activity against methicillin-resistant Staphylococcus aureus BAA-44 at […] uM after 16 to 20 hrs by microdilution susceptibility test; format: functional
Staphylococcus aureus [15] = assay: Ratio of MBC to MIC for Staphylococcus aureus BAA-44 after 16 to 20 hrs by microdilution susceptibility test

Row | Compound | MIC (Staphylococcus aureus [1]; Staphylococcus aureus, BAA-44) [µM] | MIC (Acinetobacter baumannii [2]) [µM] | MIC (Acinetobacter baumannii [3]) [µM] | MIC (Acinetobacter baumannii [4]) [µM] | MIC (Staphylococcus aureus [5]) [µM] | MIC (Acinetobacter baumannii [6]) [µM] | MIC (Acinetobacter baumannii [7]) [µM] | MIC (Staphylococcus aureus [8]) [µM] | MIC (Staphylococcus aureus [9]) [µM] | also measured
1 | CCCCc1cn(-c2ccc(C(=O)Nc3ccc4[nH]c(N)nc4c3)cc2)nn1 | > 400 |  |  |  |  |  |  |  |  | 
2 | CCCCCCCCCCc1cn(-c2ccc(C(=O)Nc3ccc4[nH]c(N)nc4c3)cc2)nn1 | > 400 |  |  |  |  |  |  |  |  | 
3 | CC(C)(C)c1ccc(C(=O)Nc2ccc3[nH]c(N)nc3c2)cc1 | 50 (≈ 15.4 µg/mL) | 100 (≈ 30.8 µg/mL) | 100 (≈ 30.8 µg/mL) | 100 (≈ 30.8 µg/mL) | 100 (≈ 30.8 µg/mL) | 50 (≈ 15.4 µg/mL) | 100 (≈ 30.8 µg/mL) | 50 (≈ 15.4 µg/mL) | 50 (≈ 15.4 µg/mL) | 
4 | NC[C@H]1O[C@H](O[C@H]2[C@H](O)[C@@H](O[C@H]3O[C@H](CO)[C@@H](O)[C@H](N)[C@H]3O)[C@H](N)C[C@@H]2N)[C@H](N)C[C@@H]1O [TOBRAMYCIN] |  | 200 (≈ 93.5 µg/mL) | 6.25 (≈ 2.92 µg/mL) | > 400 |  | 200 (≈ 93.5 µg/mL) | 25 (≈ 11.7 µg/mL) |  |  | 
5 | O=C(O)c1cn(C2CC2)c2cc(N3CCNCC3)c(F)cc2c1=O [CIPROFLOXACIN] | 12.5 (≈ 4.14 µg/mL) |  |  |  |  |  |  | 0.391 (≈ 0.13 µg/mL) | 0.391 (≈ 0.13 µg/mL) | 
6 | CCCCCCc1ccc(C(=O)Nc2ccc3[nH]c(N)nc3c2)cc1 | 12.5 (≈ 4.21 µg/mL) | 25 (≈ 8.41 µg/mL) | 12.5 (≈ 4.21 µg/mL) | 50 (≈ 16.8 µg/mL) | 12.5 (≈ 4.21 µg/mL) | 12.5 (≈ 4.21 µg/mL) | 50 (≈ 16.8 µg/mL) | 6.25 (≈ 2.1 µg/mL) | 12.5 (≈ 4.21 µg/mL) | 
7 | CN[C@H](CC(C)C)C(=O)N[C@H]1C(=O)N[C@@H](CC(N)=O)C(=O)N[C@H]2C(=O)N[C@H]3C(=O)N[C@H](C(=O)N[C@H](C(=O)O)c4cc(O)cc(O)c4-c4cc3ccc4O)[C@H](O)c3ccc(c(Cl)c3)Oc3cc2cc(c3O[C@@H]2O[C@H](CO)[C@@H](O)[C@H](O)[C@H]2O[C@H]2C[C@](C)(N)[C@H](O)[C@H](C)O2)Oc2ccc(cc2Cl)[C@H]1O [VANCOMYCIN] | 0.391 (≈ 0.567 µg/mL) |  |  |  | 0.391 (≈ 0.567 µg/mL) |  |  | 0.195 (≈ 0.283 µg/mL) | 0.391 (≈ 0.567 µg/mL) | 
8 | CCCCCCCc1ccc(C(=O)Nc2ccc3[nH]c(N)nc3c2)cc1 | 25 (≈ 8.76 µg/mL) |  |  | 50 (≈ 17.5 µg/mL) | 50 (≈ 17.5 µg/mL) | 12.5 (≈ 4.38 µg/mL) | 50 (≈ 17.5 µg/mL) | 12.5 (≈ 4.38 µg/mL) | 25 (≈ 8.76 µg/mL) | 
9 | CCCCCCCCCCCC(=O)Nc1ccc2[nH]c(N)nc2c1 | 12.5 (≈ 4.13 µg/mL) | 25 (≈ 8.26 µg/mL) | 12.5 (≈ 4.13 µg/mL) | 12.5 (≈ 4.13 µg/mL) | 50 (≈ 16.5 µg/mL) | 12.5 (≈ 4.13 µg/mL) | 25 (≈ 8.26 µg/mL) | 12.5 (≈ 4.13 µg/mL) | 25 (≈ 8.26 µg/mL) | 
10 | CCCCCCS(=O)(=O)Nc1ccc2[nH]c(N)nc2c1 | 100 (≈ 29.6 µg/mL) |  |  |  |  |  |  | 100 (≈ 29.6 µg/mL) | 100 (≈ 29.6 µg/mL) | 
11 | CCCCCc1ccc(C(=O)Nc2ccccc2)cc1 | > 400 |  |  |  |  |  | > 400 |  |  | 
12 | CN(C)[C@@H]1C(O)=C(C(N)=O)C(=O)[C@@]2(O)C(O)=C3C(=O)c4c(O)cccc4[C@@](C)(O)[C@H]3C[C@@H]12 [TETRACYCLINE] |  | > 400 | > 400 | 25 (≈ 11.1 µg/mL) |  | 6.25 (≈ 2.78 µg/mL) | 3.13 (≈ 1.39 µg/mL) |  |  | 
13 | CCCCCCC(=O)Nc1ccc2[nH]c(N)nc2c1 |  | > 400 | > 400 | > 400 |  | 400 (≈ 104 µg/mL) | > 400 |  |  | 
14 | Nc1nc2cc(NC(=O)c3ccccc3)ccc2[nH]1 |  |  |  |  |  |  |  |  |  | hemolysis at 25 µM [10]: < 1%
15 | C[C@@H](O)[C@H]1C(=O)N2C(C(=O)O)=C(SCCNC=N)C[C@H]12 [IMIPENEM ANHYDROUS] |  | 3.12 (≈ 0.935 µg/mL) | 50 (≈ 15 µg/mL) | 200 (≈ 59.9 µg/mL) |  | 50 (≈ 15 µg/mL) | 0.391 (≈ 0.117 µg/mL) |  |  | 
16 | [N-]=[N+]=NCCc1ccsc1 |  | > 400 | > 400 |  |  | > 400 | > 400 |  |  | 
17 | CN[C@@H]1[C@H](O[C@H]2[C@H](O[C@H]3[C@H](O)[C@@H](O)[C@H](N=C(N)N)[C@@H](O)[C@@H]3N=C(N)N)O[C@@H](C)[C@]2(O)C=O)O[C@@H](CO)[C@H](O)[C@H]1O [STREPTOMYCIN] | > 200 |  |  |  |  |  |  | 0.391 (≈ 0.227 µg/mL) | 1.56 (≈ 0.907 µg/mL) | 
18 | CCCCCCCCCC(=O)Nc1ccc2[nH]c(N)nc2c1 | 25 (≈ 7.56 µg/mL) | 25 (≈ 7.56 µg/mL) | 25 (≈ 7.56 µg/mL) | 25 (≈ 7.56 µg/mL) | 25 (≈ 7.56 µg/mL) | 25 (≈ 7.56 µg/mL) | 25 (≈ 7.56 µg/mL) | 12.5 (≈ 3.78 µg/mL) | 12.5 (≈ 3.78 µg/mL) | 
19 | CCCCCCCCCCCCCCCCCC(=O)Nc1ccc2[nH]c(N)nc2c1 |  | > 400 | > 400 | > 400 |  | > 400 | > 400 |  |  | 
20 | Nc1nc2cc(NC(=O)c3ccc(-c4ccccc4)cc3)ccc2[nH]1 | > 400 |  |  | > 400 | > 400 | > 400 | > 400 | > 400 | > 400 | 
21 | CCCCCc1ccc(C(=O)Nc2ccc3[nH]c(N)nc3c2)cc1.Cl | 12.5 | 25 | 12.5 | 25 | 12.5 | 12.5 | 25 | 6.25 | 12.5 | Activity [11]: 16%; MBC50 (Staphylococcus aureus [1]): 5.88 µM; MBC90 (Staphylococcus aureus [1]): 11.15 µM; MBC (Staphylococcus aureus [1]; Staphylococcus aureus, BAA-44): 25 µM; Activity [12]: > 50%; Activity [13]: 9%; Activity (Staphylococcus aureus [14]): 99.15%; hemolysis at 25 µM [10]: < 1%; Ratio (Staphylococcus aureus [15]): 2
22 | [N-]=[N+]=Nc1ccc(C(=O)Nc2ccc3[nH]c(N)nc3c2)cc1 | 400 (≈ 117 µg/mL) |  |  |  |  |  |  |  |  | 
23 | CC1(C)S[C@@H]2[C@H](NC(=O)[C@H](N)c3ccccc3)C(=O)N2[C@H]1C(=O)O [AMPICILLIN] |  | > 400 | > 400 | > 400 |  | > 400 | > 400 |  |  | 
24 | COc1cccc(OC)c1C(=O)N[C@@H]1C(=O)N2[C@@H]1SC(C)(C)[C@@H]2C(=O)O [METHICILLIN] | > 400 |  |  |  |  |  |  |  | 3.13 (≈ 1.19 µg/mL) | 
25 | CCCCc1ccc(C(=O)Nc2ccc3[nH]c(N)nc3c2)cc1 | 25 (≈ 7.71 µg/mL) | 50 (≈ 15.4 µg/mL) | 25 (≈ 7.71 µg/mL) | 100 (≈ 30.8 µg/mL) | 25 (≈ 7.71 µg/mL) | 25 (≈ 7.71 µg/mL) | 50 (≈ 15.4 µg/mL) | 12.5 (≈ 3.85 µg/mL) | 25 (≈ 7.71 µg/mL) | 
26 | GENTAMICIN |  | > 400 | > 400 | > 400 |  | 200 | 100 | 6.2 | 0.391 | MIC (Staphylococcus aureus [1]): 200 µM
27 | Nc1nc2cc(NS(=O)(=O)c3ccc4ccccc4c3)ccc2[nH]1 | 100 (≈ 33.8 µg/mL) |  |  |  |  |  |  |  | 100 (≈ 33.8 µg/mL) | 
28 | CCCCCc1ccc(-c2c[nH]c(N)n2)cc1 | 12.5 (≈ 2.87 µg/mL) |  |  |  |  |  |  |  |  | 
